*1 amine or outer side, *2 acyl side, *3 side chain or, on linkers, in order; H or OH if unused. Where a SMILES comes first, the peptide text is derived from it. [ ]: non-standard residue; d: D form. ξ: configuration not given here. 2(aminomethyl)benzoyl = O=C(c1ccccc1CN[*:1])[*:2]; X1 = C[C@@H](CCCC(=O)[*:2])N[*:1]; X2 = C[C@H](CCCN[*:1])C(=O)[*:2]; ξThr(3R) = C[C@@H](O)C(N)C(=O)O; 12Ado = NCCCCCCCCCCCC(=O)O; 3Amb = NCc1cccc(C(=O)O)c1; 4Amb = NCc1ccc(C(=O)O)cc1; Aun = NCCCCCCCCCCC(=O)O; Aoc = NCCCCCCCC(=O)O; Ahx = NCCCCCC(=O)O; ξP = O=C(O)C1CCCN1; Ava = NCCCCC(=O)O; GABA = NCCCC(=O)O

In the assay the target is T1, Interleukin-8 (Homo sapiens, UniProt P10145).
T1 sequence (P10145 whole entry): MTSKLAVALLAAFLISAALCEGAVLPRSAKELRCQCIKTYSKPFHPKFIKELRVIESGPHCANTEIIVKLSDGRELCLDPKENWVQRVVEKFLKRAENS
Kind of assay: Inhibition of Interleukin-8 (IL-8).
Take `CSCC[C@H](NC(C)=O)C(=O)N[C@@H](Cc1c[nH]c2ccccc12)C(=O)N[C@@H](CC(=O)O)C(=O)N[C@@H](Cc1ccccc1)C(=O)N[C@@H](CC(=O)O)C(=O)N[C@@H](CC(=O)O)C(=O)N[C@@H](CC(C)C)C(=O)N[C@@H](CC(N)=O)C(=O)N[C@@H](Cc1ccccc1)C(=O)NC(C(=O)NCCCCC(=O)N1CCC[C@H]1C(=O)N1CCC[C@H]1C(=O)N[C@@H](C)C(=O)N[C@@H](CC(=O)O)C(=O)N[C@@H](CCC(=O)O)C(=O)N[C@@H](CC(=O)O)C(=O)N[C@@H](Cc1ccc(O)cc1)C(=O)N[C@@H](CO)C(=O)N1CCC[C@H]1C(N)=O)[C@@H](C)O` (stereo partly drawn) (Ac-MWDFDDLNF[ξThr(3R)][Ava]PPADEDYSP-NH2): affinity was put at a Ki of 106 µM.

Take `CSCC[C@H](NC(C)=O)C(=O)N[C@@H](Cc1c[nH]c2ccccc12)C(=O)N[C@@H](CC(=O)O)C(=O)N[C@@H](Cc1ccccc1)C(=O)N[C@@H](CC(=O)O)C(=O)N[C@@H](CC(=O)O)C(=O)N[C@@H](CC(C)C)C(=O)N[C@@H](CC(N)=O)C(=O)N[C@@H](Cc1ccccc1)C(=O)NCCCCC(=O)N[C@@H](CCSC)C(=O)N1CCC[C@H]1C(=O)N1CCC[C@H]1C(=O)N[C@@H](C)C(=O)N[C@@H](CC(=O)O)C(=O)N[C@@H](CCC(=O)O)C(=O)N[C@@H](CC(=O)O)C(=O)N[C@@H](Cc1ccc(O)cc1)C(=O)N[C@@H](CO)C(=O)N1CCC[C@H]1C(N)=O` (Ac-MWDFDDLNF[Ava]MPPADEDYSP-NH2): the Ki – broadly, a measure of affinity in units of concentration, obtained from inhibition or displacement – turned out to be 13 µM.

`CSCC[C@H](NC(C)=O)C(=O)N[C@@H](Cc1c[nH]c2ccccc12)C(=O)N[C@@H](CC(=O)O)C(=O)N[C@@H](Cc1ccccc1)C(=O)N[C@@H](CC(=O)O)C(=O)N[C@@H](CC(=O)O)C(=O)N[C@@H](CC(C)C)C(=O)N[C@@H](CC(N)=O)C(=O)N[C@@H](Cc1ccccc1)C(=O)NCc1cccc(C(=O)N[C@@H](CCSC)C(=O)N2CCC[C@H]2C(=O)N2CCC[C@H]2C(=O)N[C@@H](C)C(=O)N[C@@H](CC(=O)O)C(=O)N[C@@H](CCC(=O)O)C(=O)N[C@@H](CC(=O)O)C(=O)N[C@@H](Cc2ccc(O)cc2)C(=O)N[C@@H](CO)C(=O)N2CCC[C@H]2C(N)=O)c1` (Ac-MWDFDDLNF[3Amb]MPPADEDYSP-NH2): the Ki turned out to be 4 µM.

In turn, `CSCC[C@H](NC(C)=O)C(=O)N[C@@H](Cc1c[nH]c2ccccc12)C(=O)N[C@@H](CC(=O)O)C(=O)N[C@@H](Cc1ccccc1)C(=O)N[C@@H](CC(=O)O)C(=O)N[C@@H](CC(=O)O)C(=O)NCCCCCCCCCCCC(=O)N[C@@H](CCSC)C(=O)N1CCC[C@H]1C(=O)N1CCC[C@H]1C(=O)N[C@@H](C)C(=O)N[C@@H](CC(=O)O)C(=O)N[C@@H](CCC(=O)O)C(=O)N[C@@H](CC(=O)O)C(=O)N[C@@H](Cc1ccc(O)cc1)C(=O)N[C@@H](CO)C(=O)N1CCC[C@H]1C(N)=O` (Ac-MWDFDD[12Ado]MPPADEDYSP-NH2) gave an inhibition constant Ki of 4 µM.

`CSCC[C@H](NC(C)=O)C(=O)N[C@@H](Cc1c[nH]c2ccccc12)C(=O)N[C@@H](CC(=O)O)C(=O)N[C@@H](Cc1ccccc1)C(=O)N[C@@H](CC(=O)O)C(=O)N[C@@H](CC(=O)O)C(=O)N[C@@H](CC(C)C)C(=O)N[C@@H](CC(N)=O)C(=O)N[C@@H](Cc1ccccc1)C(=O)NCc1ccc(C(=O)N[C@@H](CCSC)C(=O)N2CCC[C@H]2C(=O)N2CCC[C@H]2C(=O)N[C@@H](C)C(=O)N[C@@H](CC(=O)O)C(=O)N[C@@H](CCC(=O)O)C(=O)N[C@@H](CC(=O)O)C(=O)N[C@@H](Cc2ccc(O)cc2)C(=O)N[C@@H](CO)C(=O)N2CCC[C@H]2C(N)=O)cc1` (Ac-MWDFDDLNF[4Amb]MPPADEDYSP-NH2): the Ki turned out to be 2.3 µM.

On to `CSCC[C@H](NC(C)=O)C(=O)N[C@@H](Cc1c[nH]c2ccccc12)C(=O)N[C@@H](CC(=O)O)C(=O)N[C@@H](Cc1ccccc1)C(=O)N[C@@H](CC(=O)O)C(=O)N[C@@H](CC(=O)O)C(=O)NCCCCCCCC(=O)N[C@@H](CCSC)C(=O)N1CCC[C@H]1C(=O)N1CCC[C@H]1C(=O)N[C@@H](C)C(=O)N[C@@H](CC(=O)O)C(=O)N[C@@H](CCC(=O)O)C(=O)N[C@@H](CC(=O)O)C(=O)N[C@@H](Cc1ccc(O)cc1)C(=O)N[C@@H](CO)C(=O)N1CCC[C@H]1C(N)=O` (Ac-MWDFDD[Aoc]MPPADEDYSP-NH2), for which the Ki stood at 12 µM.

Regarding Ac-MWDFDDLNFTGMPPADEDYSP-NH2, the affinity corresponds to a Ki of 13 µM.

With Ac-MWDFDDGMPPADEDYSP-NH2, the Ki stood at 31 µM.

Compound `CSCC[C@H](NC(C)=O)C(=O)N[C@@H](Cc1c[nH]c2ccccc12)C(=O)N[C@@H](CC(=O)O)C(=O)N[C@@H](Cc1ccccc1)C(=O)N[C@@H](CC(=O)O)C(=O)N[C@@H](CC(=O)O)C(=O)N[C@@H](CC(C)C)C(=O)N[C@@H](CC(N)=O)C(=O)N[C@@H](Cc1ccccc1)C(=O)NC(C(=O)NCCC[C@@H](C)C(=O)N1CCC[C@H]1C(=O)N1CCC[C@H]1C(=O)N[C@@H](C)C(=O)N[C@@H](CC(=O)O)C(=O)N[C@@H](CCC(=O)O)C(=O)N[C@@H](CC(=O)O)C(=O)N[C@@H](Cc1ccc(O)cc1)C(=O)N[C@@H](CO)C(=O)N1CCC[C@H]1C(N)=O)[C@@H](C)O` (stereo partly drawn) (Ac-MWDFDDLNF[ξThr(3R)][X2]PPADEDYSP-NH2) showed a Ki of 383 µM.

For `CSCC[C@H](NC(C)=O)C(=O)N[C@@H](Cc1c[nH]c2ccccc12)C(=O)N[C@@H](CC(=O)O)C(=O)N[C@@H](Cc1ccccc1)C(=O)N[C@@H](CC(=O)O)C(=O)N[C@@H](CC(=O)O)C(=O)N[C@@H](CC(C)C)C(=O)N[C@@H](CC(N)=O)C(=O)N[C@@H](Cc1ccccc1)C(=O)NCc1ccccc1C(=O)N[C@@H](CCSC)C(=O)N1CCC[C@H]1C(=O)N1CCC[C@H]1C(=O)N[C@@H](C)C(=O)N[C@@H](CC(=O)O)C(=O)N[C@@H](CCC(=O)O)C(=O)N[C@@H](CC(=O)O)C(=O)N[C@@H](Cc1ccc(O)cc1)C(=O)N[C@@H](CO)C(=O)N1CCCC1C(N)=O` (some centres undefined) (Ac-MWDFDDLNF[2(aminomethyl)benzoyl]MPPADEDYS[ξP]-NH2), the affinity corresponds to a Ki of 9.3 µM.

For `CSCC[C@H](NC(C)=O)C(=O)N[C@@H](Cc1c[nH]c2ccccc12)C(=O)N[C@@H](CC(=O)O)C(=O)N[C@@H](Cc1ccccc1)C(=O)N[C@@H](CC(=O)O)C(=O)N[C@@H](CC(=O)O)C(=O)N[C@@H](CC(C)C)C(=O)N[C@@H](CC(N)=O)C(=O)N[C@@H](Cc1ccccc1)C(=O)N[C@@H](C)CCCC(=O)N[C@@H](CCSC)C(=O)N1CCC[C@H]1C(=O)N1CCC[C@H]1C(=O)N[C@@H](C)C(=O)N[C@@H](CC(=O)O)C(=O)N[C@@H](CCC(=O)O)C(=O)N[C@@H](CC(=O)O)C(=O)N[C@@H](Cc1ccc(O)cc1)C(=O)N[C@@H](CO)C(=O)N1CCC[C@H]1C(N)=O` (Ac-MWDFDDLNF[X1]MPPADEDYSP-NH2), the inhibition constant (Ki) is 10 µM.

In the case of `CSCC[C@H](NC(C)=O)C(=O)N[C@@H](Cc1c[nH]c2ccccc12)C(=O)N[C@@H](CC(=O)O)C(=O)N[C@@H](Cc1ccccc1)C(=O)N[C@@H](CC(=O)O)C(=O)N[C@@H](CC(=O)O)C(=O)NCCCC(=O)N[C@@H](CCSC)C(=O)N1CCC[C@H]1C(=O)N1CCC[C@H]1C(=O)N[C@@H](C)C(=O)N[C@@H](CC(=O)O)C(=O)N[C@@H](CCC(=O)O)C(=O)N[C@@H](CC(=O)O)C(=O)N[C@@H](Cc1ccc(O)cc1)C(=O)N[C@@H](CO)C(=O)N1CCC[C@H]1C(N)=O` (Ac-MWDFDD[GABA]MPPADEDYSP-NH2), the affinity, expressed as Ki, was 14 µM.

`CSCC[C@H](NC(C)=O)C(=O)N[C@@H](Cc1c[nH]c2ccccc12)C(=O)N[C@@H](CC(=O)O)C(=O)N[C@@H](Cc1ccccc1)C(=O)N[C@@H](CC(=O)O)C(=O)N[C@@H](CC(=O)O)C(=O)NCCCCCCCCCCC(=O)N[C@@H](CCSC)C(=O)N1CCC[C@H]1C(=O)N1CCC[C@H]1C(=O)N[C@@H](C)C(=O)N[C@@H](CC(=O)O)C(=O)N[C@@H](CCC(=O)O)C(=O)N[C@@H](CC(=O)O)C(=O)N[C@@H](Cc1ccc(O)cc1)C(=O)N[C@@H](CO)C(=O)N1CCC[C@H]1C(N)=O` (Ac-MWDFDD[Aun]MPPADEDYSP-NH2) returned a Ki of 6 µM.

`CSCC[C@H](NC(C)=O)C(=O)N[C@@H](Cc1c[nH]c2ccccc12)C(=O)N[C@@H](CC(=O)O)C(=O)N[C@@H](Cc1ccccc1)C(=O)N[C@@H](CC(=O)O)C(=O)N[C@@H](CC(=O)O)C(=O)NCCCCCC(=O)N[C@@H](CCSC)C(=O)N1CCC[C@H]1C(=O)N1CCC[C@H]1C(=O)N[C@@H](C)C(=O)N[C@@H](CC(=O)O)C(=O)N[C@@H](CCC(=O)O)C(=O)N[C@@H](CC(=O)O)C(=O)N[C@@H](Cc1ccc(O)cc1)C(=O)N[C@@H](CO)C(=O)N1CCC[C@H]1C(N)=O` (Ac-MWDFDD[Ahx]MPPADEDYSP-NH2) registered an inhibition constant (Ki) of 7 µM.

The values are drawn from ChEMBL document CHEMBL1129841, “Peptide based inhibitors of interleukin-8: structural simplification and enhanced potency” (Bioorg Med Chem Lett, 1997).
